From patent US9976141B2, “Compositions and methods for inhibiting gene expression of Hif2alpha” (Arrowhead Madison Inc., priority 2015, dated 2018)

test system: human (tumor) Hif2α (EPAS1) mRNA; experiment: Hif2α knockdown in orthotopic RCC tumor bearing mice, single injection of RNAi trigger-delivery polymer conjugate, RT-qPCR (Table 7); format: in vivo; conditions: RNAi trigger 50 μg, polymer 064 125 μg; single tail vein injection; relative to isotonic glucose
Method in brief: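 Female athymic nude mice carried orthotopic A498-SEAP ccRCC kidney tumours, used 5–6 weeks after implantation. They received one tail-vein injection of RGD-targeted Hif2α RNAi trigger–polymer conjugate or isotonic glucose. Tumour Hif2α mRNA was measured by TaqMan RT-qPCR normalised to CycA (ΔΔCT) and expressed relative to glucose-treated mice.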

Compared with “AD03256 (antisense AUUCAUGAAAUCGUUACGUUGAT; sense AACGUAACGAUUUCAUGAAUT; Hif2alpha RNAi agent antisense strand; modified_base 2,4,6,8,14 /mod_base = “2′-deoxy-2′-fluoro corresponding nucleoside”; modified_base 1,3,5,7,9,10,11,12,13,15,16,17,18,19,20,21,22 /mod_base = “2′-O-methyl corresponding nucleoside”; modified_base 23 /mod_base = “3′-3′-linked nucleotide”; modified_base 2,3,22,23 /mod_base = “5′-phosphorothioate corresponding nucleotide”; Hif2alpha RNAi agent sense strand; modified_base 8,9,10 /mod_base = “2′-deoxy-2′-fluoro corresponding nucleoside”; modified_base 1,2,3,4,5,6,7,11,12,13,14,15,16,17,18,19,20 /mod_base = “2′-O-methyl corresponding nucleoside”)”, “AD03257 (antisense UUUCAUGAAAUCGUUACGUUG; sense ACGUAACGAUUUCAUGAAAT; Hif2alpha RNAi agent antisense strand; modified_base 2,8,10,14 /mod_base = “2′-deoxy-2′-fluoro corresponding nucleoside”; modified_base 1,3,4,5,6,7,9,11,12,13,15,16,17,18,19,20,21 /mod_base = “2′-O-methyl corresponding nucleoside”; modified_base 2,3,20,21 /mod_base = “5′-phosphorothioate corresponding nucleotide”; Hif2alpha RNAi agent sense strand; modified_base 7,8,9 /mod_base = “2′-deoxy-2′-fluoro corresponding nucleoside”; modified_base 1,2,3,4,5,6,10,11,12,13,14,15,16,17,18,19 /mod_base = “2′-O-methyl corresponding nucleoside”; modified_base 20 /mod_base = “3′-3′-linked nucleotide”; modi)” is lower in “Relative Expression day 4 (Hif2α mRNA in kidney tumor)” value: 0.333 for the first, 0.203 for the second.

With “AD03258 (antisense AUUCAUGAAAUCGUUACGUUG; sense ACGUAACGAUUUCAUGAAUT; Hif2alpha RNAi agent antisense strand; modified_base 2,8,10,14 /mod_base = “2′-deoxy-2′-fluoro corresponding nucleoside”; modified_base 1,3,4,5,6,7,9,11,12,13,15,16,17,18,19,20,21 /mod_base = “2′-O-methyl corresponding nucleoside”; modified_base 2,3,20,21 /mod_base = “5′-phosphorothioate corresponding nucleotide”; Hif2alpha RNAi agent sense strand; modified_base 7,8,9 /mod_base = “2′-deoxy-2′-fluoro corresponding nucleoside”; modified_base 1,2,3,4,5,6,10,11,12,13,14,15,16,17,18,19 /mod_base = “2′-O-methyl corresponding nucleoside”; modified_base 20 /mod_base = “3′-3′-linked nucleotide”; modi)” the “Relative Expression day 4 (Hif2α mRNA in kidney tumor)” value was 0.137.
